# Data as given in US20220087979A1, “TREATMENT OF MALIGNANCIES” (Board of Trustees of Michigan State University, priority 2017, published 2022).
# pIC50: −log10 of the molar value.
# How the values were obtained:
# LC3B-II = experiment: LC3B immunoblot in U87-MG cells; type: cell-based; conditions: for amount of LC3B-II: TCH-165 10 μM 16 h or BafA1 100 nM 4 h, alone (FIG. 2A)
# Procedure: (§1) U87-MG cells at 70% confluency were treated with test compounds at the reported concentration and time. Cells were washed with warm PBS and trypsinized with 0.25% Trypsin-EDTA. Samples were collected in chilled PBS, pelleted and washed twice with chilled PBS. Cells were then lysed with celLytic buffer supplemented with 1% sigma fast inhibitor cocktail. Total protein was quantified by BCA reagent, and 20 μg resolved on a 12% (LC3B) or 30 μg on a 4-12% (p62, ATG5, beclin1) Tris-glycine SDS-PAGE, and immunoblotted with antigen specific antibody (1:1000), and goat anti-rabbit HRP (1:1000). Blots were developed with ECL western reagent and imaged with x-ray film.
# To determine whether TCH-165 affects LC3B-II formation, glioblastoma astrocytoma (U87-MG) cells were treated with TCH-165 and the level of LC3B-II monitored by immunoblot. U87-MG cells were incubated with different concentrations of TCH-165 and immunoblotted with LC3B-specific antibody. U87-MG cells were also treated with a specific amount of TCH-165 (10 μM) and evaluated at 0, 6, 12, and 24 hours. Cell lysates were immunoblotted with LC3B-specific antibody and anti-GAPDH as a loading control.
# U87-MG cells were treated with either vehicle (DMSO) or TCH-165 (10 μM) for 16 h, followed by treatment with bafilomycin A1 (100 nM) for 4 h. Conversion of LC3BI to LC3BII was detected by immunoblot with LC3B-specific antibody.
# cOS Ginger = experiment: Tumor cell growth inhibition, cOS Ginger; type: cell-based; conditions: Canis lupus familiaris; Canine Osteosarcoma cell line cOS Ginger
# Procedure: (§2) The pIC50 values shown in Table 1, herein, was determined as the negative log of the amount of compound required to inhibit tumor cell growth by 50% (the IC50). […] A pIC50 of 4 indicates an IC50 of 10-4.
# HS DH82 = experiment: Tumor cell growth inhibition, HS DH82; type: cell-based; conditions: Canis lupus familiaris; Canine Histiocytic Sarcoma cell line HS DH82
# Procedure: as §2
# Hela cells = experiment: Tumor cell growth inhibition, Hela cells; type: cell-based; conditions: Human Cervical Adenocarcinoma
# Procedure: as §2
# hOS Saos2 = experiment: Tumor cell growth inhibition, hOS Saos2; type: cell-based; conditions: SAOS-2; Human Osteosarcoma cell line hOS Saos2
# Procedure: as §2
# Fel SCC2 = experiment: Tumor cell growth inhibition, Fel SCC2; type: cell-based; conditions: Felis catus, SCC-2; Feline Squamous Cell Carcinoma cell line Fel SCC2
# Procedure: as §2
# cOS Blaz = experiment: Tumor cell growth inhibition, cOS Blaz; type: cell-based; conditions: Canis lupus familiaris; Canine Osteosarcoma cell line cOS Blaz
# Procedure: as §2
# cOS D17 = experiment: Tumor cell growth inhibition, cOS D17; type: cell-based; conditions: Canis lupus familiaris; Canine Osteosarcoma cell line cOS D17
# Procedure: as §2
# Fel SCC1 = experiment: Tumor cell growth inhibition, Fel SCC1; type: cell-based; conditions: Felis catus; Feline Squamous Cell Carcinoma cell line Fel SCC1
# Procedure: as §2
# cOS Brandie primary = experiment: Tumor cell growth inhibition, cOS Brandie primary; type: cell-based; conditions: Canis lupus familiaris; Canine Osteosarcoma cell line cOS Brandie primary
# Procedure: as §2
# HS BD = experiment: Tumor cell growth inhibition, HS BD; type: cell-based; conditions: Canis lupus familiaris; Canine Histiocytic Sarcoma cell line HS BD
# Procedure: as §2
# cOS Abrams = experiment: Tumor cell growth inhibition, cOS Abrams; type: cell-based; conditions: Canis lupus familiaris; Canine Osteosarcoma cell line cOS Abrams
# Procedure: as §2
# Normal FB1 = experiment: Cell growth inhibition, Normal FB1; type: cell-based; conditions: Canis lupus familiaris; Canine Normal Firbroblasts Normal FB1
# Procedure: as §2
# Fel SCC3 = experiment: Tumor cell growth inhibition, Fel SCC3; type: cell-based; conditions: Felis catus, SCC-3; Feline Squamous Cell Carcinoma cell line Fel SCC3
# Procedure: as §2
# cOS Gracie = experiment: Tumor cell growth inhibition, cOS Gracie; type: cell-based; conditions: Canis lupus familiaris; Canine Osteosarcoma cell line cOS Gracie
# Procedure: as §2
# Normal FB2 = experiment: Cell growth inhibition, Normal FB2; type: cell-based; conditions: Canis lupus familiaris; Canine Normal Firbroblasts Normal FB2
# Procedure: as §2
# hOS U2OS = experiment: Tumor cell growth inhibition, hOS U2OS; type: cell-based; conditions: Human Osteosarcoma cell line hOS U2OS
# Procedure: as §2
# HS PJ = experiment: Tumor cell growth inhibition, HS PJ; type: cell-based; conditions: Canis lupus familiaris; Canine Histiocytic Sarcoma cell line HS PJ
# Procedure: as §2
# hOS MG63 = experiment: Tumor cell growth inhibition, hOS MG63; type: cell-based; conditions: MG-63; Human Osteosarcoma cell line hOS MG63
# Procedure: as §2
# cOS Brandie mets = experiment: Tumor cell growth inhibition, cOS Brandie mets; type: cell-based; conditions: Canis lupus familiaris; Canine Osteosarcoma cell line cOS Brandie mets
# Procedure: as §2
# U87-MG cells [1] = experiment: Cell viability assay (MTS assay); type: cell-based; conditions: 72 h
# Procedure: (§3) FIG. 5B graphically illustrates the viability of glioblastoma cells treated with different concentrations of TCH-165 or TCH-023 for 72 h. MTS reagent was added to quantify cell viability and the absorbance measured at 490 nm 2 h later. Absorbance readings are expressed as percentage of vehicle control for three independent experiments and data are graphed as mean±SD.
# as §3, with “5D is a bar graph showing” for “5B graphically illustrates”, “temozolomide” for “TCH-023”, “was then” for “was”, “added” for “added to quantify cell viability”, “and” for “and the”
# U87-MG cells were seeded in a clear 96-well plate at a density of 1.0×10^4 cells per well. Cells were treated with different concentrations of TCH-165 or temozolomide for 72 h. MTS solution (20 μL) was then added and incubated under cell culture conditions for 2 h. Absorbance was read at 490 nm and expressed as a percentage of vehicle control.
# LC3B = experiment: Confocal immunofluorescence of LC3B in U87-MG cells; type: cell-based
# Procedure: (§4) U87-MG cells were plated in complete medium at 2.5×10^5 cells/well of a four-chamber glass slide overnight. Fresh medium (500 μL) containing the test compound was added and allowed to incubate for the desire time under cell culture conditions. Cells were washed with chilled immunofluorescent (IF) wash buffer (1×PBS, pH 8.0) and fixed with methanol at −20° C. for 10 minutes. Cells were then washed 2× with IF wash buffer and incubated in blocking buffer (1×PBS, 5% normal goat serum, 0.3% Triton X-100 pH 8.0) for 1 h at RT. Blocking buffer was replaced with primary antibody diluted in dilution buffer (1×PBS, 1% BSA, 0.3% Triton X-100 pH 8.0) overnight (1:200) at 40° C. Primary antibody was washed off 3× and incubated in anti-rabbit Alexa Fluor 488 (1:500) and/or anti-mouse Alexa Fluor 594 for 1 h in the dark, at RT. Secondary antibodies were then washed off (3×) and nuclei stained with Hoechst (4 μg/mL) at RT, for 20 minutes. DNA dye was rinsed off and slides mounted in Prolong Gold and allowed to cure overnight at RT, in the dark. Slides were sealed with nail polish, and LC3B, LAMP1 and p62 punctae detected with a 60× Plan Apo oil objective on a Nikon C2+ or Nikon A1 confocal laser microscope.
# LC3B polypeptides were stained with LC3B antibody/Alexa Fluor 488 secondary (green) and the cellular nuclei were stained with Hoechst DNA dye (blue).
# p62 [2] = experiment: Confocal immunofluorescence of p62 in U87-MG cells; type: cell-based; conditions: 10 μM, 24 hr, immunofluorescence imaging
# Procedure: All statistical analyses were performed on densitometry data (imageJ) of five individual experiments. Data are graphed as mean±SD and were analyzed by One-Way ANOVA with Bonferroni's multiple comparison test or by student t-test for 2 samples (ns=not significant, *p<0.05, *p<0.01, **p<0.001).
# U87-MG cells were plated in complete medium at 2.5×10^5 cells/well of a four-chamber glass slide overnight. Fresh medium (500 μL) containing the test compound was added and allowed to incubate for the desire time under cell culture conditions. Cells were washed with chilled immunofluorescent (IF) wash buffer (1×PBS, pH 8.0) and fixed with methanol at −20° C. for 10 minutes. Cells were then washed 2× with IF wash buffer and incubated in blocking buffer (1×PBS, 5% normal goat serum, 0.3% Triton X-100 pH 8.0) for 1 h at RT. Blocking buffer was replaced with primary antibody diluted in dilution buffer (1×PBS, 1% BSA, 0.3% Triton X-100 pH 8.0) overnight (1:200) at 40° C. Primary antibody was washed off 3× and incubated in anti-rabbit Alexa Fluor 488 (1:500) and/or anti-mouse Alexa Fluor 594 for 1 h in the dark, at RT. Secondary antibodies were then washed off (3×) and nuclei stained with Hoechst (4 μg/mL) at RT, for 20 minutes. […] Slides were sealed with nail polish, and LC3B, LAMP1 and p62 punctae detected with a 60× Plan Apo oil objective on a Nikon C2+ or Nikon A1 confocal laser microscope.
# HEK293 = experiment: Cell growth inhibition, HEK293; type: cell-based; conditions: Human Embryonic Kidney HEK293
# Procedure: as §2
# MCT C2 = experiment: Tumor cell growth inhibition, MCT C2; type: cell-based; conditions: Canis lupus familiaris; Canine Mastocytoma cell line MCT C2
# Procedure: as §2
# U87-MG cells [3] = experiment: Cytotoxicity assay (LDH assay); type: cell-based; conditions: Homo sapiens, U-87 MG, LDH-based assay, 72 h, FIG. 5E-5F
# Procedure: U87-MG cells were seeded in a clear 96-well plate at a density of 1.0×10^4 cells per well. Cells were treated with different concentrations of TCH-165 or temozolomide for 72 h. Culture medium was then assayed for lactate dehydrogenase (LDH) activity according to the manufacturer's protocol. Briefly, cells for maximum toxicity were treated with 10 μL of lysis buffer 45 minutes prior to enzyme assay. Culture media (50 μL) were then transferred to new 96 well plate and 50 μL of substrate mix added. The reaction mixtures were incubated at RT protected from light for 30 minutes. Stop solution (50 μL) was then added and absorbance read at 490 nm. Toxicity was expressed as a fraction of sample treated with lysis buffer.
# [4] = tested on: lysosomes of HEK293T cells; experiment: Lysosome de-acidification live imaging (LysoSensor yellow/blue dextran, LAMP1-RFP); type: cell-based, Human; conditions: cells expressing LAMP1-RFP; TCH-165 10 μM, chloroquine 100 μM
# Procedure: HEK293T cells cultured on cover glass slides were transduced with 30 particles per cell of LAMP1-RFP and cultured for 24 h. Cells were then incubated with either vehicle, TCH-165 (10 μM) or chloroquine (100 μM) for 12 h. LysoSensor Yellow/Blue dextran, 10,000 MW, Anionic (1 mg/mL) was then added for a further 12 h and cells imaged with an upright 60× Plan Apo oil objective on a Nikon A1 confocal microscope using standard filter sets for RFP, blue and yellow dyes.
# Lysosensor yellow/blue dextran is a pH sensitive dye that is […] (neutral pH). Lysosomes were distinguished from other acidic organelles by imaging with a combination of lysosensor yellow/blue dextran and LAMP1-RFP.
# p62 [5] = experiment: p62 immunoblot in U87-MG cells; type: cell-based; conditions: concentration (FIG. 2C) and time (10 μM; 0-24 h, FIG. 2D) dependent
# Procedure: as §1
# autolysosome formation [6] = experiment: Co-localization of LC3B with LAMP1 in U87MG cells; type: cell-based; conditions: 10 μM, 24 h
# Procedure: as §4
# Co-localization of LC3B with LAMP1 was therefore examined to distinguish inhibition of autolysosome formation from autolysosome de-acidification. […]
# autolysosome formation [7] = experiment: Tandem RFP-GFP-LC3B autophagy sensor in U87-MG cells; type: cell-based; conditions: 10 μM, 24 h, FIG. 3A
# Procedure: By combining an acid insensitive red fluorescent protein (RFP) with an acid sensitive green fluorescent protein (GFP), the conversion of autophagosomes (with neutral pH) to an autolysosome (with acidic pH) can be visualized by monitoring the specific loss of the GFP fluorescence upon acidification of the autophagosome following lysosomal fusion.
# U87-MG cells were transduced with 30 particles per cell of tandem-RFP-GFP-LC3B and cultured for 24 h. Cells were then incubated with either vehicle or TCH-165 (10 μM) for an additional 24 h. Cells were fixed with 4% formaldehyde, counter stained with Hoechts DNA dye, and imaged on a Nikon C2 confocal microscope using standard filter sets for blue dye, GFP and RFP.
# [8] = dog, in vivo
# beclin-1, ATG5 and ATG12 = experiment: Immunoblot of autophagic regulators in U87-MG cells; type: cell-based; conditions: 24 h, FIG. 4
# Procedure: as §1
# [9] = tested on: lysosome associated membrane protein (LAMP)-1; experiment: Confocal immunofluorescence of LAMP1 in U87-MG cells; type: cell-based; conditions: 10 μM, 24 h, FIG. 1D
# Procedure: as §4
structure (smiles),measurement,setting,value
"CO/C1=C\C(C)=C\[C@@H](C)[C@@H](O)[C@@H](C)C/C(C)=C/C=C/[C@H](OC)[C@@H]([C@@H](C)[C@@H](O)[C@H](C)[C@@]2(O)C[C@@H](O)[C@H](C)[C@@H](C(C)C)O2)OC1=O [BafA1, bafilomycin A1, reference compound]",amount of LC3B-II,LC3B-II; U87-MG,significant increase
CCOC(=O)[C@]1(c2ccccc2)N=C(c2ccccc2)N(Cc2ccccc2)[C@@H]1c1ccccc1 [TCH-013],pIC50,cOS Ginger,5.50
same,pIC50,HS DH82,5.00
same,pIC50,Hela cells,5.00
same,pIC50,hOS Saos2,5.30
same,pIC50,Fel SCC2,3.70
same,pIC50,cOS Blaz,4.90
same,pIC50,cOS D17,4.70
same,pIC50,Fel SCC1,5.00
same,pIC50,cOS Brandie primary,5.00
same,pIC50,HS BD,5.30
same,pIC50,cOS Abrams,4.80
same,pIC50,Normal FB1,3.70
same,pIC50,Fel SCC3,4.30
same,pIC50,cOS Gracie,5.20
same,pIC50,Normal FB2,4.40
same,pIC50,hOS U2OS,4.80
same,pIC50,HS PJ,5.40
same,pIC50,hOS MG63,4.70
same,pIC50,cOS Brandie mets,4.80
"CCOC(=O)[C@]1(c2ccccc2)N=C(c2ccccc2)N[C@@H]1c1ccccc1 [TCH-023, reference compound]",LC3B-II accumulation,"LC3B-II; U87-MG, structurally related control",no effect
same,inhibition of autophagy (LC3B immunoblot),"LC3B-II; glioblastoma cells, 10 μM, 24 h, FIG. 5C",did not inhibit autophagy
same,induction of cell death,U87-MG cells [1]; U87-MG,did not induce any cell death
CCOC(=O)[C@]1(c2ccccc2)N=C(c2ccc(OC)cc2)N(Cc2ccccc2)[C@@H]1c1ccc(NCc2ccccc2)cc1 [TCH-165],pIC50,cOS Ginger,5.10
same,pIC50,HS DH82,5.70
same,LC3B-II levels versus TCH-165 alone,"LC3B-II; U87-MG, TCH-165 10 μM 16 h followed by BafA1 100 nM 4 h",did not further increase
same,amount of LC3B-II,LC3B-II; U87-MG,significant increase
same,LC3B-II levels,"LC3B-II; U87-MG, different concentrations, 10 μM at 0, 6, 12, 24 h (FIG. 1A, 1B)",increases LC3B-II levels
same,number of LC3B punctate,"LC3B; 10 μM, 16 hours, FIG. 1C",significant increase
same,number of autophagic vacuoles,"LC3B; torin1 100 nM 4 h followed by TCH-165 10 μM 16 h, FIG. 2B",significantly increased
same,pIC50,Hela cells,5.10
same,p62 punctae,p62 [2],increase in p62 punctae
same,pIC50,HEK293,5.70
same,pIC50,hOS Saos2,5.50
same,pIC50,Fel SCC2,4.60
same,pIC50,MCT C2,4.00
same,GI50,"U87-MG cells [1]; Homo sapiens, U-87 MG, U87-MG, MTS-based assay, FIG. 5B",4.5 µM
same,GI50,U87-MG cells [3],7 µM
same,pIC50,cOS Blaz,5.20
same,lysosensor yellow/blue dextran fluorescence of lysosomes,[4],mainly had red/blue vacuoles
same,pIC50,cOS D17,5.20
same,pIC50,Fel SCC1,5.70
same,pIC50,cOS Brandie primary,5.50
same,pIC50,HS BD,5.20
same,p62 level,p62 [5],increase in p62
same,pIC50,cOS Abrams,4.90
same,Co-localization of LC3B and LAMP1,autolysosome formation [6],not observed
same,GFP and RFP fluorescence of vacuoles in RFP-GFP-LC3B cells,autolysosome formation [7],retained both GFP and RFP positive vacuoles
same,pIC50,Normal FB1,3.70
same,pIC50,Fel SCC3,3.70
same,pIC50,cOS Gracie,5.70
same,tolerance / signs of toxicity,[8],without showing any clinical or biochemical signs of toxicity
same,pIC50,Normal FB2,4.70
same,"effect on expression of beclin-1, ATG5 and ATG12","beclin-1, ATG5 and ATG12",did not appear to have any significant effect
same,pIC50,hOS U2OS,5.30
same,number of lysosomes (LAMP1 staining),[9],increased numbers of lysosomes
same,pIC50,HS PJ,5.50
same,pIC50,hOS MG63,5.50
same,pIC50,cOS Brandie mets,5.40
"Cn1nnc2c(C(N)=O)ncn2c1=O [TMZ, temozolomide]",U87-MG cells killed,"U87-MG cells [1]; 1 mM, FIG. 5D",54%
"CCN(CC)CCCC(C)Nc1ccnc2cc(Cl)ccc12 (centres unmarked) [chloroquine, reference compound]",lysosensor yellow/blue dextran fluorescence of lysosomes,[4],shifted the fluorescence to the yellow spectrum
"CCC(=O)N1CCN(c2ccc(-n3c(=O)ccc4cnc5ccc(-c6cnc7ccccc7c6)cc5c43)cc2C(F)(F)F)CC1 [torin1, reference compound]",accumulation of autophagic vacuoles,"LC3B; torin1 100 nM alone, FIG. 2B",modest accumulation
